Laboratory results as given in patent US20160074373A1, “METHODS AND COMPOSITIONS FOR INHIBITING HUMAN COPPER TRAFFICKING PROTEINS ATOX1 AND CCS” (SHANGHAI INSTITUTE OF MATERIA MEDICA, CHINESE ACADEMY OF …, priority 2013, published 2016).
Several values for one entry are separate records, joined by “and”; a condition that tells them apart may be missing. Identical values can stand only once.

How the values were obtained:
K562 cancer cells [1] = experiment: Cell cycle arrest assay
H1299 cells [2] = experiment: 14C-lipid synthesis from 14C-glucose; format: cell-based
H1299 cancer cells [3] = experiment: Cell cycle arrest assay
K562 cells [4] = experiment: K562 xenograft; conditions: 100 mg/kg/day i.p. for 21 days vs vehicle control
[5] = test system: SOD activity in H1299 cells; experiment: SOD activity assay; conditions: 48 h treatment
H1299 cancer cells [6] = experiment: 8-OHdG levels by triple quadrupole mass spectrometry; format: cell-based
Description: FIG. 20A illustrates 8-OHdG levels in H1299 cancer cells determined by triple quadrupole mass spectrometry analysis. […] .

H1299 cells [7] = experiment: Apoptosis and caspase-3 activity
[8] = test system: cytochrome c oxidase (CCO) in K562 cells; experiment: Cytochrome c oxidase activity assay; conditions: compared to the control
HeLa cells = experiment: Live cell copper(I) probe imaging of copper uptake; conditions: 50 μM, added 10 min after CuSO4 (150 μM)
[9] = test system: cytochrome c oxidase (CCO) in H1299 cells; experiment: Cytochrome c oxidase activity assay; conditions: compared to the control
[10] = test system: human PIG1 cell and human dermal fibroblast cell
H1299 cells [11] = experiment: ROS production (DCFH-DA); format: cell-based; conditions: 10 μM
Description: (§1) Cells were treated with DMSO and DC_AC50 for 12 h and ROS generation was detected with DCFH-DA. Cells were incubated with 10 μM of DCFH-DA for 30 min at 37° C., washed twice with PBS, and immediately analyzed by a FACScan flow cytometer. The antioxidant NAC was treated with 3 mM concentration.

K562 cells [12] = experiment: ROS production (DCFH-DA); format: cell-based; conditions: 10 μM
Description: as §1

K562 cancer cells [13] = experiment: 8-OHdG levels by triple quadrupole mass spectrometry; format: cell-based
Description: FIG. 20B illustrates 8-OHdG levels in K562 cancer cells determined by triple quadrupole mass spectrometry analysis. […] .

[14] = test system: Lung cancer H1299 cell, Head and neck cancer 212LN cell, Breast cancer MB231 cell; experiment: Cancer cell viability / proliferation
[15] = test system: SOD activity in K562 cells; experiment: SOD activity assay; conditions: 48 h treatment
H1299 cells [16] = experiment: Oxygen consumption rate; conditions: in the presence or absence of oligomycin
[17] = test system: AMPK phosphorylation and ACC1 phosphorylation; experiment: Western blot of AMPK and ACC1 phosphorylation; format: cell-based; conditions: H1299 and K562 cells
H1299 cells [18] = experiment: H1299 xenograft; conditions: 100 mg/kg/day i.p. for 21 days vs vehicle control
[19] = Description: An in vivo small molecule treatment experiment was performed to further test the efficacy of these compounds.
SOD1 and SOD2 = experiment: Western blot of SOD1 and SOD2 levels; conditions: H1299 and K562 cells
human CCS (hCCS) = target: T1, human CCS (hCCS) (Homo sapiens, UniProt O14618); experiment: Intrinsic fluorescence Kd measurement; format: binding; conditions: intrinsic tryptophan fluorescence
T1 construct: 6-His (cleaved yes); made in house; host or cells: E. coli BL21 (pET28a)
T1 sequence (O14618 1-274): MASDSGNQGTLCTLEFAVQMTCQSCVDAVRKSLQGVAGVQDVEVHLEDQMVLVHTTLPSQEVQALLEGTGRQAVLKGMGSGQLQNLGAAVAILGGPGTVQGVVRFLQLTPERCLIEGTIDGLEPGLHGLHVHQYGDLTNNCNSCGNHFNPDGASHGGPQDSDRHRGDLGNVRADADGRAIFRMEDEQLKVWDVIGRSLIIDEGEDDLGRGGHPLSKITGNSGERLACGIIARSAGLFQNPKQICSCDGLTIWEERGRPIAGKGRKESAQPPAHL
Description: Based on this similarity, the intrinsic fluorescence of tyrosine for Atox1 and WD4 and tryptophan for hCCS upon addition of small molecules was monitored.
The binding assay was performed in an […]. […] The Atox, WD4 domain and hCCS (1 μM) were performed in 50 mM HEPES, 200 mM NaCl, 1 mM DTT (pH 7.1). […] Following this fluorescence results, the Kds of the small molecules was calculated.

H1299 cells [20] = experiment: Lactate production
H1299 cells [21] = experiment: Intracellular ATP measurement
H1299 cells [22] = experiment: 14C-RNA synthesis from 14C-glucose
H1299 cells [23] = experiment: Glucose utilization assay
K562 cells [24] = experiment: Intracellular ATP measurement

## Nc1c(C(=O)Nc2c(F)cc(F)cc2Br)sc2nc3c(cc12)CCC3 [Compound 50, 3-amino-N-(2-bromo-4,6-difluorophenyl)-6,7-dihydro-5H-cyclopenta[b]thieno[3,2-e]pyridine-2-carboxamide]
K562 cancer cells [1]
  cell cycle: G2/M phase cell cycle arrest
H1299 cells [2]
  lipid synthesis: significant decreases
H1299 cancer cells [3]
  cell cycle: G2/M phase cell cycle arrest
K562 cells [4]
  tumor growth and size: significantly decreased tumor growth and size
[5]
  SOD activity: noticeably decreased
H1299 cancer cells [6]
  8-OHdG levels: increased
H1299 cells [7]
  apoptosis: didn't noticeably induce apoptosis
  caspase-3 activity: does not noticeably affect
[8]
  CCO activity: significantly lowered
HeLa cells
  copper uptake: reduced copper uptake
[9]
  CCO activity: significantly lowered
[10]
  effect on noncancerous cell lines: minimum effects
[10]; 72 hours, highest concentration tested 10 μM
  viability of normal cells: not harmful
H1299 cells [11]
  cellular ROS level: increased cellular ROS level
K562 cells [12]
  cellular ROS level: increased cellular ROS level
K562 cancer cells [13]
  8-OHdG levels: increased
[14]; H1299, 212LN, MB231, increasing doses
  cell death in cancer cells: induce cell death
[14]; dose-dependent
  cancer cell proliferation: high efficiency in inhibiting cancer cell proliferation
[15]
  SOD activity: noticeably decreased
H1299 cells [16]
  oxygen consumption rate: significantly decreased
[17]
  ACC1 phosphorylation: increased
  AMPK phosphorylation: increased
H1299 cells [18]
  tumor growth and size: significantly decreased tumor growth and size
[19]; mouse, in vivo, 100 mg/kg/day
  GRAN: 1.58 ± 1.4 ×10^3/μL
  HCT: 30.85 ± 4.879%
  HGB: 7.45 ± 1.768 g/dL
  LYM: 4.74 ± 1.556 ×10^3/μL
  MCH: 13.6 ± 1.273 pg
  MCHC: 24 ± 1.98 g/dL
  MCV: 56.75 ± 0.919 fL
  MONO: 0.44 ± 0.17 ×10^3/μL
  PLT: 742 ± 684.5 ×10^3/μL
  RBC: 5.43 ± 0.778 ×10^6/μL
  RDWa: 21.5 ± 4.667%
  WBC: 6.89 ± 3.125 ×10^3/μL
[19]; nude mice, 100 mg/kg/day, mean
  MPV: 6.35 ± 0.495 fL
[19]; nude, mouse, in vivo, ip, 4 weeks
  well-tolerated dose: 100 mg/kg/day
SOD1 and SOD2
  SOD2 expression level: Reduced expression
Human CCS (hCCS)
  Kd: 8 µM and ~8.1 µM
H1299 cells [20]
  cellular level of lactate: no noticeable changes
H1299 cells [21]
  cellular ATP levels: significantly reduced
H1299 cells [22]
  glucose-dependent RNA synthesis: no noticeable changes
H1299 cells [23]
  glucose uptake: no noticeable changes
K562 cells [24]
  cellular ATP levels: significantly reduced
